How the values were obtained:
Type in all cases: in vivo
Lettuce seeds = assay: Filter paper bioassay on germination and early development of Lettuce seeds; conditions: lowest concentration causing malformation of radicle or shoots, visually assessed six days after beginning, 0 to 1 mmol/l; for minimal effective concentration: 144 h, read-out: MEC, score (Minimal Effective Concentration, activity score) (converted)
Protocol: Materials: Seeds of Lettuce R. (Super-Jericho, non-sterilized) were obtained from Ben Shahar Moshe Ltd., 99% purity. The test compounds listed in Table 3 below were synthesized de novo or purchased from different vendors. Bioassays: Filter Paper Bioassays with Lettuce seeds were performed following Bertin et al. 2009 with modifications as described below. Seeds were placed on Whatman no. 1 filter paper (Whatman, Middlesex, U.K.) in Petri dishes (10 seeds per plate) with 2.0 ml of an aqueous solution of test material in a concentration ranging from 0 (control) to 1 mmol/l. The Petri dishes were arranged in a tray tilted at a 45-degree angle and were kept in the dark for 48 hours. Then trays with plates were transferred to the growth chamber with a 6/18 dark/light cycle for four days. Each experiment was performed in at least two repeats.
The development of plants' radicles and shoots was visually assessed six days after the beginning of the test to determine the Minimal Effective Concentration (MEC) of a test material. In the context of the invention, MEC is defined as the lowest concentration level of a test material that caused deviation (malformation of radicle or shoots).

Abutilon = assay: Post-emergence herbicidal effect on potted weeds; conditions: 2-3 true leaves, up to 5 mg/pot, scale 0 (dead plants) to 5 (healthy, as control)
Protocol: (§1) Weed seeds were sawn in 0.3-liter pots containing medium-heavy clay-loam soil from organic fields (55% clay, 23% silt, 20% sand, 2% organic matter, pH 7.1). The experiment was conducted in a completely randomized design. Each treatment was replicated three times (3 pots). Each compound was typically tested on a weed panel which included Amaranth, Abutilon, Malva, Silybum, and Sinapis. The herbicides were applied at doses from 0 (control) to 5 mg/pot. The herbicides were applied on grown plants at stage 2-3 true leaves (post-emergence treatment). The plants were grown in the mesh house during the entire experiment. Plant development at 6, 12, 19, 26, and 32 days after application (DAA) was evaluated on a scale of 0 to 5, in which 0 represents dead plants, and 5 represents healthy plants similar or not different from Control. In the context of the invention, the herbicidal effect was expressed as a score calculated as an average of assessments of plants' vigor, height, and leaf color.

Amaranth = assay: Post-emergence herbicidal effect on potted weeds; conditions: 2-3 true leaves, up to 5 mg/pot, scale 0 (dead plants) to 5 (healthy, as control)
Protocol: as §1

Lactuca = assay: Post-emergence herbicidal effect on potted weeds; conditions: 2-3 true leaves, up to 5 mg/pot, scale 0 (dead plants) to 5 (healthy, as control)
Protocol: as §1

Lettuce = assay: Post-emergence herbicidal effect on potted weeds; conditions: 2-3 true leaves, up to 5 mg/pot, scale 0 (dead plants) to 5 (healthy, as control)
Protocol: as §1

Malva = assay: Post-emergence herbicidal effect on potted weeds; conditions: 2-3 true leaves, up to 5 mg/pot, scale 0 (dead plants) to 5 (healthy, as control)
Protocol: as §1

Silybum = assay: Post-emergence herbicidal effect on potted weeds; conditions: 2-3 true leaves, up to 5 mg/pot, scale 0 (dead plants) to 5 (healthy, as control)
Protocol: as §1

Sinapis = assay: Post-emergence herbicidal effect on potted weeds; conditions: 2-3 true leaves, up to 5 mg/pot, scale 0 (dead plants) to 5 (healthy, as control)
Protocol: as §1

Solanum = assay: Post-emergence herbicidal effect on potted weeds; conditions: 2-3 true leaves, up to 5 mg/pot, scale 0 (dead plants) to 5 (healthy, as control)
Protocol: as §1

Trifolium = assay: Post-emergence herbicidal effect on potted weeds; conditions: 2-3 true leaves, up to 5 mg/pot, scale 0 (dead plants) to 5 (healthy, as control)
Protocol: as §1

Verbesina = assay: Post-emergence herbicidal effect on potted weeds; conditions: 2-3 true leaves, up to 5 mg/pot, scale 0 (dead plants) to 5 (healthy, as control)
Protocol: as §1

| SMILES | minimal effective concentration (Lettuce seeds) [µM] | Average Herbicidal Effect, score (Abutilon) | Average Herbicidal Effect, score (Amaranth) | Average Herbicidal Effect, score (Lactuca) | Average Herbicidal Effect, score (Lettuce) | Average Herbicidal Effect, score (Malva) | Average Herbicidal Effect, score (Silybum) | Average Herbicidal Effect, score (Sinapis) | Average Herbicidal Effect, score (Solanum) | Average Herbicidal Effect, score (Trifolium) | Average Herbicidal Effect, score (Verbesina) | activity score (Lettuce seeds) [score] |
| --- | --- | --- | --- | --- | --- | --- | --- | --- | --- | --- | --- | --- |
| CCOC(=O)COc1ccc(F)c(Br)n1 [compound 7118, ethyl [(6-bromo-5-fluoropyridin-2-yl)oxy]acetate] | < 1 | 4 | 1 | 3 | 5 | 1 | 1 | 1 | 0 | 2 | 2 | – |
| CCOCCOCCOC(=O)COc1ccc(F)c(Br)n1 [compound 7156, 2-(2-ethoxyethoxy)ethyl 2-[(6-bromo-5-fluoropyridin-2-yl)oxy]acetate] | – | 1 | 1 | 2 | 0 | 1 | 1 | 1 | 0 | 2 | 1 | 5.5 |
| O=C(O)COc1ccc(F)c(Br)n1 [compound 7157, [(6-bromo-5-fluoropyridin-2-yl)oxy]acetic acid] | 1 | 3 | 0 | 2 | 1 | 1 | 1 | 1 | 0 | 2 | 0 | – |

Source: US20250374926A1, “NOVEL DERIVATIVES OF NON-CODED AMINO ACIDS AND THEIR USE IN CROP PROTECTION” (FORTEPHEST LTD., priority 2022, published 2025)
